Patent US10899741B2, “3,4-bipyridyl pyrazole derivative, and preparation method therefor and medical application thereof” (Jiangsu Hengrui Medicine Co., Ltd., priority 2016, dated 2021)

Legend:
[1] = Pharmacokinetics assay in rats after intragastrical administration; assay type: in vivo; conditions: both sexes, Sprague-Dawley, rat, plasma, po, SD rats; for Vd/F / AUC / CL/F / half-life / MRT: 2.0 mg/kg; for Vd/F: read-out: Apparent distribution volume Vz/F; for AUC: read-out: Area under curve AUC; for CL/F: read-out: Clearance CLz/F; for half-life: read-out: Half-life T1/2 (converted); for MRT: read-out: Residence time MRT
Description: Rats were used as test animals. The drug concentration in plasma at different time points was determined by LC/MS/MS method after intragastrical administration of the compounds of Examples 1 and 2 to rats. The pharmacokinetic behavior of the compounds of the present invention was studied and evaluated in rats.
Eight healthy adult Sprague-Dawley (SD) rats (half male and half female) were purchased from SINO-BRITISH SIPPR/BK LAB. ANIMAL LTD., CO, with Certificate No.: SCXK (Shanghai) 2008-0016, and equally divided into 2 groups (4 rats per group).
A certain amount of the test drug was weighed, and added with 5% by volume of DMSO, 5% by volume of Tween 80, and 90% by volume of physiological saline to prepare a 0.2 mg/mL colorless, clear and transparent solution.
After an overnight fast, SD rats were administered intragastrically the test drugs at an administration dosage of 2.0 mg/kg and an administration volume of 10.0 mL/kg.
The rats were intragastrically administered the compounds of Examples 1 and 2. 0.2 mL of blood was taken from the orbital sinus before administration and at 0.5, 1.0, 2.0, 4.0, 6.0, 8.0, 11.0 and 24.0 hours after administration. The samples were stored in heparinized tubes, and centrifuged for 10 minutes at 4° C. at 3,500 rpm to separate the blood plasma. The plasma samples were stored at −20° C. The rats were fed 2 hours after administration.
The content of the test compounds in the plasma of rats after intragastrical administration of the test drugs at different concentrations was determined: 25 μL of rat plasma at each time after administration was taken, added with 30 μL (100 ng/mL) of the internal standard solution of camptothecin and 225 μL of acetonitrile, vortex-mixed for 5 minutes, and centrifuged for 10 minutes (3600 rpm). 5.0 μL of the supernatant was taken from the plasma samples for LC/MS/MS analysis.

TGFβRI kinase ALK5 = TGFβRI kinase ALK5 (Homo sapiens (Human), UniProt P36897); test: Inhibition of TGFβRI kinase ALK5 activity (ADP-Glo kit); assay type: biochemical; conditions: ATP 50 μM, 27° C. 2.5 hours
Chain of TGFβRI kinase ALK5 (P36897 34-503): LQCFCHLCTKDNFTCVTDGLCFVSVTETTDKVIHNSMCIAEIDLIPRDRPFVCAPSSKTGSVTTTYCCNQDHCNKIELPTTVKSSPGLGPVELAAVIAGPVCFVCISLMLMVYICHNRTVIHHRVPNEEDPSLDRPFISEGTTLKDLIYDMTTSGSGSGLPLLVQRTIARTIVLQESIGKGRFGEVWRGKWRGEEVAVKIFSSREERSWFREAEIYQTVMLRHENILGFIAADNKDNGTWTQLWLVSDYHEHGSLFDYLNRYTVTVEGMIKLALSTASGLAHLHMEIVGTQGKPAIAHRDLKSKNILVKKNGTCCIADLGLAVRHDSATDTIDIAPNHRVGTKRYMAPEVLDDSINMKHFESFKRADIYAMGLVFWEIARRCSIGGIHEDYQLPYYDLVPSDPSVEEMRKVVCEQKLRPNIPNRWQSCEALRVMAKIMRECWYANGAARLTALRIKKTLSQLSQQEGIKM
Description: The inhibition effect of TGFβRI kinase activity in vitro was determined by the following method.
The inhibition effect of the compounds of the present invention on TGFβRI kinase ALK5 activity was determined by the following experimental method:
TGFβRI kinase assay kit (V4093, Promega) was used to assay enzyme activity. 2 μl of enzyme solution (the final concentration of enzyme in the reaction system was 2 ng/μL) formulated with reaction buffer (40 mM Tris pH 7.5, 20 mM MgCl2, 0.1 mg/ml BSA), 1 μl of a 3-fold gradient dilution of the compounds dissolved in 5% DMSO, and 2 μl of a mixed solution of ATP and TGFβRI substrate peptide (the final concentration of ATP was 50 μM, and the final concentration of substrate was 0.2 μg/μL) were added successively to a 384-well plate (4514, Corning). After reaction at 27° C. for 2.5 hours, 5 μl of ADP-Glo solution in the kit was added to each well, then the plate was placed at 27° C. for 40 minutes. 10 μl of kinase assay reagent was then added to each well, then the plate was placed at 27° C. for 30 minutes. The chemiluminescence signal values were measured with a Victor 3 (PerkinElmer) multi-function microplate reader. The IC50 values of the compounds for enzyme inhibition were calculated using Graphpad prism software based on each concentration of the compound and the corresponding signal value thereof.

[2] = test system: murine melanoma cell B16-F1 xenograft; test: Therapeutic effect on B16-F1 xenograft C57 mice; assay type: in vivo
Description: Evaluation of the inhibition effect of the compound of Example 1 on the growth of murine melanoma cell B16-F1 xenograft on C57 mice.
Compound 1 was formulated into a 5 mg/ml aqueous solution using 0.5% CMC-Na+0.25% (v/v) Polysorbate 80. The administration concentration was 50 mg/kg, and the oral volume for intragastrical administration was 10 ml/kg.
Female C57BL/6J mice for laboratory use were purchased from SINO-BRITISH SIPPR/BK LAB. ANIMAL LTD., CO (Shanghai, China, Certificate No.: SCXK (Shanghai) 2008-0016), and the body weight of mice was from 16 to 20 g when purchased. After the animals were purchased, the test was started after 3 days of adaptive feeding. Feeding conditions: SPF grade. Animal feeding method: 12/12 hours light/dark cycle, temperature 23±1° C., humidity 40-50%, the animals were fed with standard sterilized murine feed, and had free access to food and water.
The C57 mice after adaptive feeding were fasted overnight in a metabolic cage, and divided randomly into the following groups after weighing: blank control group and Compound 1 group, 10 mice per group. The skin preparation on the right flank of C57 mice was carried out one day in advance, B16-F1 cells were subcutaneously inoculated ([…] cells per mouse), and administration was started on the third day after inoculation. Each mouse was intragastrically administrated with Compound 1 (i.g., 10 ml/kg) twice a day, and the blank group was intragastrically administrated with the corresponding solvent. The tumor volume was measured twice a week, the body weight was weighed and the data were recorded.
Excel statistical software was used: the average value was calculated by avg; the SD value was calculated by STDEV; the SEM value was calculated as STDEV/SQRT: the difference between the groups P value was calculated by TTEST.
The calculation formula of tumor volume (V) is: V=½×Llength×Lshort^2
Tumor inhibition rate (%)==(C−T)/C (%)
Wherein V0 and VT are the tumor volumes at the beginning of the test and at the end of the test, respectively. C and T are the average tumor volumes of the Blank group and the test group at the end of the test, respectively.

| Structure (SMILES) | Vd/F [1] [L/kg] | AUC [1] [µg·h/mL] | CL/F [1] [L/h/kg] | half-life [1] [h] | MRT [1] [h] | IC50 (TGFβRI kinase ALK5) [µM] | Cmax ([1]; 2 mg/kg, heading: Plasma concentration Cmax) [µg/mL] | Effect on the body weight of the mice ([2]; 50 mg/kg i.g. twice a day) | Tumor volume compared with the blank control group ([2]; Day 19, 50 mg/kg i.g. twice a day) | Average tumor volume d0 ([2]; d0, 50 mg/kg po bid/20d) [mm^3] | Average tumor volume d22 ([2]; d22, 50 mg/kg po bid/20d) [mm^3] |
| --- | --- | --- | --- | --- | --- | --- | --- | --- | --- | --- | --- |
| Cc1cccc(-c2nn(C3CC3)cc2-c2ccnc(-c3ccc(S(C)(=O)=O)cc3)c2)n1 [Example 2, 4-(1-Cyclopropyl-3-(6-methylpyridin-2-yl)-1H-pyrazol-4-yl)-2-(4-(methylsulfonyl)phenyl)pyridine] | 0.872 ± 0.536 | 8.06 ± 5.29 | 0.32 ± 0.159 | 1.99 ± 0.95 | 3.06 ± 0.87 | 0.27 | – | – | – | – | – |
| Cc1cccc(-c2nn(C3CCC3)cc2-c2ccnc(-c3ccc(S(C)(=O)=O)cc3)c2)n1 [Example 1, 4-(1-Cyclobutyl-3-(6-methylpyridin-2-yl)-1H-pyrazol-4-yl)-2-(4-(methylsulfonyl)phenyl)pyridine] | 1.2 ± 0.437 | 3.27 ± 1.47 | 0.714 ± 0.312 | 1.23 ± 0.33 | 1.72 ± 0.21 | 0.208 | 1.83 ± 0.941 | no effect | significantly smaller | 0.00 | 301.53 |
